This note sets out measurements from patent US20040116420A1 (priority 2001, published 2004).

One series deals with T1, HSV-1 protease (Human herpesvirus 1, UniProt P10210).
T1 construct: 6xHis (N); made in house; host or cells: baculovirus expression system
The series can be described thus: Enzymatic assay for HSV-1 protease (assembly) inhibitor, fluorescence polarization. The series is classed as biochemical. The note with it: read-out: HSV-1 Enzyme inhibition IC50. An outline of the steps:
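His6-tagged HSV-1 UL26 protease, baculovirus-expressed, preincubated 30 min at RT with compound in 1 M citrate/phosphate buffer pH 7.4 with 20% glycerol and 2 mM TCEP. A biotin-HTYLQA*SERFRIK-DTAF substrate was then cleaved for 60 min at RT, stopped with avidin, and read by fluorescence polarization versus no-inhibitor control.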

The subject of a further series is HSV-1. Put plainly: Antiviral activity, HSV-1 in Vero cells, plaque method. The class given is cell-based. Conditions: Human alphaherpesvirus 1, 20 hours, 90% inhibition of plaque formation. An outline of the steps: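 HSV-1 (50,000 pfu in 2% FBS-DMEM) was added to Vero cells and removed, then the compound was applied in 2% FBS-DMEM for 20 h at 37° C, 5% CO2. After a freeze-thaw, virus yield in the medium was titred by plaque assay. EC90 is the concentration giving 90% plaque reduction versus the compound-free control.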

The next series concerns Vero cells. The series can be described thus: Cytotoxicity, Vero cells, Alamar Blue. The class given is cell-based. The note with it: 25 μM, 20 hours. The protocol:
An Assay Method for Cytotoxicity
The Vero cells were sown on a 96-well plate and then cultured overnight. The culture supernatant was removed, and 200 μl of 2% FBS-DMEM comprising 25 μM of the test compound was added. In this case, a substance to which 2% FBS-DMEM not comprising any test compound had been added was determined as a control. These cells were incubated in the presence of 5% CO2 at 37° C. for 20 hours. Alamar Blue (20 μl) was added to the cells, and cells were incubated for about 6 hours until the color of the control changed. The ratio of the absorbance was assayed using a microplate reader for absorption, and the value relative to the control was determined to be the ratio of living cells.
In general terms: Resazurin is reduced to fluorescent resorufin, in cell work by metabolically active cells.

Each structure is given as a SMILES string.

T1 sequence (P10210 1-247): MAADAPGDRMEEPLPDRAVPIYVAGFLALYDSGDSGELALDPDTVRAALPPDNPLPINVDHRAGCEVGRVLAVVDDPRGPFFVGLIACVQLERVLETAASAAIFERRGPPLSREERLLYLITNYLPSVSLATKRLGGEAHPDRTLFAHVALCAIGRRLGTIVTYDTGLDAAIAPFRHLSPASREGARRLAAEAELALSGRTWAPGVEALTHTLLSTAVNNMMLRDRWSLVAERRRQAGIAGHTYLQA

As for `Cc1c(NC(=O)OC(C)(C)C)ccc2nc(N[C@@H](Cc3ccccc3)C(=O)NCc3cccnc3)oc(=O)c12` [Compound No.30, (5-Methyl-4-oxo-2-{2-phenyl-1S-[(pyridin-3-ylmethyl)-carbamoyl]-ethylamino}-4H-benzo[d][1,3]oxazin-6-yl)-carbamic acid tert-butyl ester], the IC50 (commonly the concentration needed to halve the response being measured) at HSV-1 protease stood at 0.7 µM. The EC90 – broadly, the point of the concentration-response curve where the effect stands at 90% – with HSV-1 worked out at 23.8 µM. Further, the “Cell viability (% of control)” value in the series with Vero cells was 98.6%.

On to `Cc1c(NC(=O)OC(C)(C)C)ccc2nc(N[C@@H](Cc3ccccc3)C(=O)NCc3ccncc3)oc(=O)c12` [Compound No.31, (5-Methyl-4-oxo-2-{2-phenyl-1S-[(pyridin-4-ylmethyl)-carbamoyl]-ethylamino}-4H-benzo[d][1,3]oxazin-6-yl)-carbamic acid tert-butyl ester], for which, at HSV-1 protease, the IC50 was above 20 µM. Also, the EC90 with HSV-1 was above 25 µM. Further, the “Cell viability (% of control)” value with Vero cells came out at 108.0%.

Turning to `Cc1c(NC(=O)OC(C)(C)C)ccc2nc(N[C@H](C(=O)NCc3ccccn3)C(C)(C)C)oc(=O)c12` [Compound No.32, (2-{2,2-dimethyl-1S-[(pyridin-2-ylmethyl)-carbamoyl]-propylamino}-5-methyl-4-oxo-4H-benzo[d][1,3]oxazin-6-yl)-carbamic acid tert-butyl ester], at HSV-1 protease, the IC50 was 19.6 µM. Besides, the 90% effect level with HSV-1 (EC90) was put at 21.5 µM. In addition, the “Cell viability (% of control)” value in the series on Vero cells came to 111.0%.

Turning to `Cc1c(NC(=O)OC(C)(C)C)ccc2nc(N[C@H](C(=O)NCc3cccnc3)C(C)(C)C)oc(=O)c12` [Compound No.33, (2-{2,2-dimethyl-1S-[(pyridin-3-ylmethyl)-carbamoyl]-propylamino}-5-methyl-4-oxo-4H-benzo[d][1,3]oxazin-6-yl)-carbamic acid tert-butyl ester], the IC50 at HSV-1 protease turned out to be 10.1 µM. Further, the EC90 in the series with HSV-1 is 13 µM. The “Cell viability (% of control)” value with Vero cells stood at 105.0%.

As to `Cc1c(NC(=O)OC(C)(C)C)ccc2nc(NC(C)(C)C(=O)NCc3ccncc3)oc(=O)c12` [Compound No.34, (5-Methyl-2-{1-methyl-1-[(pyridin-4-ylmethyl)-carbamoyl]-ethylamino}-4-oxo-4H-benzo[d][1,3]oxazin-6-yl)-carbamic acid tert-butyl ester], at HSV-1 protease, the IC50 amounted to 1.6 µM. Besides, in the series with HSV-1, the EC90 was above 25 µM. In addition, in the series on Vero cells, the “Cell viability (% of control)” value stood at 102.0%.

For `Cc1c(NC(=O)OC(C)(C)C)ccc2nc(NC(C)(C)C(=O)NCCc3ccccn3)oc(=O)c12` [Compound No.35, {5-Methyl-2-[1-methyl-1-(2-pyridin-2-ylethylcarbamoyl)-ethylamino]-4-oxo-4H-benzo[d][1,3]oxazin-6-yl}-carbamic acid tert-butyl ester], at HSV-1 protease, the IC50 was 1.6 µM. Further, the EC90 in the series on HSV-1 is above 25 µM. In the series with Vero cells, the “Cell viability (% of control)” value is reported as 110.0%.

Turning to `Cc1c(NC(=O)OC(C)(C)C)ccc2nc(N[C@@H](CC(C)C)C(=O)NCc3ccccn3)oc(=O)c12` [Compound No.36, (5-Methyl-2-{3-methyl-1S-[(pyridin-2-ylmethyl)-carbamoyl]-butylamino}-4-oxo-4H-benzo[d][1,3]oxazin-6-yl)-carbamic acid tert-butyl ester], the IC50 at HSV-1 protease amounted to 5.8 µM. The compound also yielded an EC90 with HSV-1 of 21.5 µM. Also, the “Cell viability (% of control)” value in the series with Vero cells was found to be 110.0%.

For `Cc1c(NC(=O)OC(C)(C)C)ccc2nc(N[C@@H](CC(C)C)C(=O)NCc3cccnc3)oc(=O)c12` [Compound No.37, (5-Methyl-2-{3-methyl-1S-[(pyridin-3-ylmethyl)-carbamoyl]-butylamino}-4-oxo-4H-benzo[d][1,3]oxazin-6-yl)-carbamic acid tert-butyl ester], the IC50 on HSV-1 protease worked out at 4.6 µM. In the series with HSV-1, this compound displayed an EC90 of 15 µM. Moreover, the “Cell viability (% of control)” value in the series on Vero cells is on record as 105.0%.

As for `Cc1c(NC(=O)OC(C)(C)C)ccc2nc(N[C@@H](CC(C)C)C(=O)NCc3ccncc3)oc(=O)c12` [Compound No.38, (5-Methyl-2-{3-methyl-1S-[(pyridin-4-ylmethyl)-carbamoyl]-butylamino}-4-oxo-4H-benzo[d][1,3]oxazin-6-yl)-carbamic acid tert-butyl ester], on HSV-1 protease, the IC50 was 10.1 µM. The EC90 in the series on HSV-1 was above 25 µM. Moreover, the “Cell viability (% of control)” value in the series with Vero cells was determined as 105.0%.

`Cc1c(NC(=O)OC(C)(C)C)ccc2nc(N[C@@H](CCc3ccccc3)C(=O)NCc3ccccn3)oc(=O)c12` [Compound No.39, (5-Methyl-4-oxo-2-{3-phenyl-1S-[(pyridin-2-ylmethyl)-carbamoyl]-propylamino}-4H-benzo[d][1,3]oxazin-6-yl)-carbamic acid tert-butyl ester]: the IC50 on HSV-1 protease was found to be 1.5 µM. For the same compound, it took 12.4 µM to reach the 90% level in the series on HSV-1 (EC90). Further, the “Cell viability (% of control)” value with Vero cells was found to be 90.1%.

Regarding `Cc1c(NC(=O)OC(C)(C)C)ccc2nc(N[C@@H](CCc3ccccc3)C(=O)NCc3cccnc3)oc(=O)c12` [Compound No.40, (5-Methyl-4-oxo-2-{3-phenyl-1S-[(pyridin-3-ylmethyl)-carbamoyl]-propylamino}-4H-benzo[d][1,3]oxazin-6-yl)-carbamic acid tert-butyl ester], the IC50 at HSV-1 protease was above 20 µM. Moreover, the EC90 in the series with HSV-1 is above 25 µM. In the series with Vero cells, the “Cell viability (% of control)” value stood at 100.0%.

As for `Cc1c(NC(=O)OC(C)(C)C)ccc2nc(N[C@@H](CCc3ccccc3)C(=O)NCc3ccncc3)oc(=O)c12` [Compound No.41, (5-Methyl-4-oxo-2-{3-phenyl-1S-[(pyridin-4-ylmethyl)-carbamoyl]-propylamino}-4H-benzo[d][1,3]oxazin-6-yl)-carbamic acid tert-butyl ester], the IC50 at HSV-1 protease was found to be 5.6 µM. Moreover, the EC90 in the series on HSV-1 was above 25 µM. Also, the “Cell viability (% of control)” value in the series with Vero cells was found to be 101.0%.

Regarding `Cc1c(NC(=O)OC(C)(C)C)ccc2nc(N[C@@H](CCc3ccccc3)C(=O)NCCc3ccccn3)oc(=O)c12` [Compound No.42, {5-Methyl-4-oxo-2-[3-phenyl-1S-(2-pyridin-2-yl-ethylcarbamoyl)-propylamino]-4H-benzo[d][1,3]oxazin-6-yl}-carbamic acid tert-butyl ester], on HSV-1 protease, the IC50 amounted to 1 µM. The compound also had an EC90 with HSV-1 of 10.7 µM. In addition, the “Cell viability (% of control)” value with Vero cells is 83.0%.

As to `Cc1c(NC(=O)OC(C)(C)C)ccc2nc(N[C@@H](C)C(=O)N(C)CCc3ccccn3)oc(=O)c12` [Compound No.43, (5-Methyl-2-{1S-[methyl-(2-pyridin-2-yl-ethyl)-carbamoyl]-ethylamino}-4-oxo-4H-benzo[d][1,3]oxazin-6-yl)-carbamic acid tert-butyl ester], the IC50 on HSV-1 protease was determined as 0.7 µM. This compound showed an EC90 in the series on HSV-1 of 9.1 µM. Besides, the “Cell viability (% of control)” value in the series on Vero cells was determined as 104.0%.

Turning to `Cc1c(NC(=O)OC(C)(C)C)ccc2nc(N[C@H](C(=O)N(C)CCc3ccccn3)C(C)(C)C)oc(=O)c12` [Compound No.44, (2-{2,2-dimethyl-1S-[methyl-(2-pyridin-2-yl-ethyl)-carbamoyl]-propylamino}-5-methyl-4-oxo-4H-benzo[d][1,3]oxazin-6-yl)-carbamic acid tert-butyl ester], on HSV-1 protease, the IC50 was above 20 µM. It took 5.9 µM to reach the 90% level in the series on HSV-1 (EC90). Also, the “Cell viability (% of control)” value with Vero cells is reported as 66.2%.

`Cc1c(NC(=O)OC(C)(C)C)ccc2nc(N[C@H](C(=O)N(C)CCc3ccccn3)C(C)C)oc(=O)c12` [Compound No.45, (5-Methyl-2-{2-methyl-1S-[methyl-(2-pyridin-2-yl-ethyl)-carbamoyl]-propylamino}-4-oxo-4H-benzo[d][1,3]oxazin-6-yl)-carbamic acid tert-butyl ester]: on HSV-1 protease, the IC50 was 1.7 µM. This compound came in with an EC90 in the series with HSV-1 of 6.6 µM. In the series with Vero cells, the “Cell viability (% of control)” value turned out to be 107.0%.

Take `Cc1c(NC(=O)OC(C)(C)C)ccc2nc(N[C@@H](CC(C)C)C(=O)N(C)CCc3ccccn3)oc(=O)c12` [Compound No.46, (5-Methyl-2-{3-methyl-1S-[methyl-(2-pyridin-2-yl-ethyl)-carbamoyl]-butylamino}-4-oxo-4H-benzo[d][1,3]oxazin-6-yl)-carbamic acid tert-butyl ester]: the IC50 on HSV-1 protease was found to be 1.7 µM. Further, in the series with HSV-1, it took 4.9 µM to reach the 90% level (EC90). In addition, in the series with Vero cells, the “Cell viability (% of control)” value is on record as 80.1%.

Consider `Cc1c(NC(=O)OC(C)(C)C)ccc2nc(N[C@@H](CC3CCCCC3)C(=O)N(C)CCc3ccccn3)oc(=O)c12` [Compound No.47, (2-{2-cyclohexyl-1S-[methyl-(2-pyridin-2-yl-ethyl)-carbamoyl]-ethylamino}-5-methyl-4-oxo-4H-benzo[d][1,3]oxazin-6-yl)-carbamic acid tert-butyl ester], for which, at HSV-1 protease, the IC50 came to 2.9 µM. Also, the EC90 with HSV-1 was below 3.2 µM. In addition, the “Cell viability (% of control)” value with Vero cells came out at 36.7%.

Turning to `Cc1c(NC(=O)OC(C)(C)C)ccc2nc(N[C@@H](CCc3ccccc3)C(=O)N(C)CCc3ccccn3)oc(=O)c12` [Compound No.48, (5-Methyl-2-{1S-[methyl-(2-pyridin-2-yl-ethyl)-carbamoyl]-3-phenyl-propylamino}-4-oxo-4H-benzo[d][1,3]oxazin-6-yl)-carbamic acid tert-butyl ester], the IC50 on HSV-1 protease was found to be 1.2 µM. This compound displayed an EC90 in the series with HSV-1 of 3.7 µM. Further, the “Cell viability (% of control)” value with Vero cells was 44.2%.
